Where two headings read alike, the source gives them in different places.
Biological target: T1, human CB2R (Homo sapiens, UniProt P34972)
T1 construct: host or cells: CHO cells
Test: CB2R mediated modulation of cAMP synthesis
Assay type: cell-based
Conditions: for agonistic activity: found through the use of the above described assays
Procedure: B. CB2R Mediated Modulation of cAMP Synthesis:
CHO cells expressing human CB2R (Euroscreen) were plated at a density of 5000 cells per well in 384 well plates and incubated overnight at 37° C. After removing the media, the cells were treated with test compounds diluted in stimulation buffer containing 1 mM IBMX, 0.25% BSA and 10 uM Forskolin. The assay was incubated for 30 minutes at 37° C. Cells were lysed and the cAMP concentration was measured using DiscoverX-XS cAMP kit, following the manufacturer's protocol. In this setting, agonists will decrease forskolin induced production of cAMP while inverse agonists will further increase forskolin induced production of cAMP. EC50 of agonists were calculated as follows. The maximal amount of cAMP produced by forskolin compared to the level of cAMP inhibited by 1 uM CP55940 is defined as 100%. The EC50 value of each test compound was determined as the concentration at which 50% of the forskolin-stimulated cAMP synthesis was inhibited. Data was analyzed using a four-parameter logistic model. (Model 205 of XLfit 4.0).

T1 sequence (P34972 whole entry): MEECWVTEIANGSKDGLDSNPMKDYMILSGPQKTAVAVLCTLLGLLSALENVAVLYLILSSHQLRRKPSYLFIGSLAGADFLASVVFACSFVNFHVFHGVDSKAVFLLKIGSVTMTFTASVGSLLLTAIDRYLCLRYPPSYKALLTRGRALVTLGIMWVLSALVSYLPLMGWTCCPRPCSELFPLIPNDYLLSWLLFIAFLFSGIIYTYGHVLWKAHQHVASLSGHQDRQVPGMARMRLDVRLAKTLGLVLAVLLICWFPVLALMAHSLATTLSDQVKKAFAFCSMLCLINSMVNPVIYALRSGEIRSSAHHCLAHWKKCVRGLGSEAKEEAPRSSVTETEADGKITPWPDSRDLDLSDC

| SMILES | EC50 [µM] | agonistic activity | EC50 (CHO cells expressing human CB2R, inhibition of forskolin-stimulated cAMP synthesis, compounds having agonist activity, read-out: CB2 EC50) [µM] |
| --- | --- | --- | --- |
| CC(C)(C(=O)Nc1nc2ccccc2s1)S(=O)(=O)CC1CCOCC1 [N-Benzothiazol-2-yl-2-methyl-2-(tetrahydro-pyran-4-ylmethanesulfonyl)-propionamide] | 0.0279 | agonistic activity | – |
| CCCS(=O)(=O)C(C)(C)C(=O)Nc1nc(C(C)(C)C)cs1 [N-(4-tert-Butyl-thiazol-2-yl)-2-methyl-2-(propane-1-sulfonyl)-propionamide] | 0.0192 | agonistic activity | – |
| CC(C)(C(=O)Nc1nc(C(F)(F)F)cs1)S(=O)(=O)CC1CCOCC1 [2-Methyl-2-(tetrahydro-pyran-4-ylmethanesulfonyl)-N-(4-trifluoromethyl-thiazol-2-yl)-propionamide] | – | agonistic activity | – |
| Cn1nc(-c2ccccc2)cc1NC(=O)C(C)(C)S(=O)(=O)C1CCCC1 [2-Cyclopentanesulfonyl-2-methyl-N-(2-methyl-5-phenyl-2H-pyrazol-3-yl)-propionamide] | – | agonistic activity | – |
| CC(C)S(=O)(=O)C(C)(C)C(=O)Nc1cccc(C(F)(F)F)n1 [2-Methyl-2-(propane-2-sulfonyl)-N-(6-trifluoromethyl-pyridin-2-yl)-propionamide] | – | agonistic activity | – |
| CC(C)(C)c1cc(NC(=O)C(C)(C)S(=O)(=O)CC#N)no1 [N-(5-tert-Butyl-isoxazol-3-yl)-2-cyanomethanesulfonyl-2-methyl-propionamide] | – | agonistic activity | – |
| Cc1nc(NC(=O)C(C)(C)S(=O)(=O)Cc2ccc(Cl)cc2)sc1C(C)(C)C [N-(5-tert-Butyl-4-methyl-thiazol-2-yl)-2-(4-chloro-phenylmethanesulfonyl)-2-methyl-propionamide] | 0.0121 | agonistic activity | – |
| CCCS(=O)(=O)C(C)(C)C(=O)Nc1nc(-c2ccncc2)cs1 [2-Methyl-2-(propane-1-sulfonyl)-N-(4-pyridin-4-yl-thiazol-2-yl)-propionamide] | – | agonistic activity | – |
| CCCS(=O)(=O)C(C)(C)C(=O)Nc1ccc(-c2ccccc2)cn1 [2-Methyl-N-(5-phenyl-pyridin-2-yl)-2-(propane-1-sulfonyl)-propionamide] | – | agonistic activity | – |
| CC(C)(C)c1cc(NC(=O)C(C)(C)S(=O)(=O)C2(C)CCOCC2)no1 [N-(5-tert-Butyl-isoxazol-3-yl)-2-methyl-2-(4-methyl-tetrahydro-pyran-4-sulfonyl)-propionamide] | 0.0094 | agonistic activity | – |
| CCCS(=O)(=O)C(C)(C)C(=O)Nc1cccc(C(C)(C)C)c1 [N-(3-tert-Butyl-phenyl)-2-methyl-2-(propane-1-sulfonyl)-propionamide] | – | agonistic activity | – |
| CC(C)(C)c1csc(NC(=O)C(C)(C)S(=O)(=O)C(C)(C)C)n1 [N-(4-tert-Butyl-thiazol-2-yl)-2-methyl-2-(2-methyl-propane-2-sulfonyl)-propionamide] | 0.0611 | agonistic activity | – |
| CCCS(=O)(=O)C(C)(C)C(=O)Nc1nc(C(F)(F)F)cs1 [2-Methyl-2-(propane-1-sulfonyl)-N-(4-trifluoromethyl-thiazol-2-yl)-propionamide] | – | agonistic activity | – |
| CC(C)(C)c1ccc(NC(=O)C(C)(C)S(=O)(=O)CC2CCOCC2)cc1 [N-(4-tert-Butyl-phenyl)-2-methyl-2-(tetrahydro-pyran-4-ylmethanesulfonyl)-propionamide] | 0.0033 | agonistic activity | – |
| CC(C)(C)c1cc(NC(=O)C(C)(C)S(C)(=O)=O)no1 [N-(5-tert-Butyl-isoxazol-3-yl)-2-methanesulfonyl-2-methyl-propionamide] | – | agonistic activity | – |
| CC(C)(C)c1cc(NC(=O)C2(S(=O)(=O)C3CCCCC3)CCC2)no1 [1-Cyclohexanesulfonyl-cyclobutanecarboxylic acid (5-tert-butyl-isoxazol-3-yl)-amide] | 0.0005 | agonistic activity | – |
| CC(C)(C)Cc1cc(NC(=O)C(C)(C)S(=O)(=O)CC2CCOCC2)on1 [N-[3-(2,2-Dimethyl-propyl)-isoxazol-5-yl]-2-methyl-2-(tetrahydro-pyran-4-ylmethanesulfonyl)-propionamide] | 0.0743 | agonistic activity | – |
| CC(C)(C)c1cc(NC(=O)C(C)(C)S(=O)(=O)C2CCOCC2)no1 [N-(5-tert-Butyl-isoxazol-3-yl)-2-methyl-2-(tetrahydro-pyran-4-sulfonyl)-propionamide] | – | agonistic activity | 0.0007 |

| SMILES | EC50 [µM] | agonistic activity | EC50 (CHO cells expressing human CB2R, inhibition of forskolin-stimulated cAMP synthesis, compounds having agonist activity, read-out: CB2 EC50) [µM] |
| --- | --- | --- | --- |
| CC(C)(C)c1cc(NC(=O)C(C)(C)S(=O)(=O)CC2CCN(S(C)(=O)=O)C2)no1 (centres unmarked) [N-(5-tert-Butyl-isoxazol-3-yl)-2-(1-methanesulfonyl-pyrrolidin-3-ylmethanesulfonyl)-2-methyl-propionamide] | 0.0441 | agonistic activity | – |
| CCCS(=O)(=O)C(C)(C)C(=O)Nc1nc(-c2ccccc2)c(CC)s1 [N-(5-Ethyl-4-phenyl-thiazol-2-yl)-2-methyl-2-(propane-1-sulfonyl)-propionamide] | 0.0108 | agonistic activity | – |
| CC(C)(C)S(=O)(=O)C(C)(C)C(=O)Nc1cc(C(F)(F)F)ccn1 [2-Methyl-2-(2-methyl-propane-2-sulfonyl)-N-(4-trifluoromethyl-pyridin-2-yl)-propionamide] | – | agonistic activity | – |
| CCS(=O)(=O)C(C)(C)C(=O)Nc1cc(C(C)(C)C)nn1C [N-(5-tert-Butyl-2-methyl-2H-pyrazol-3-yl)-2-ethanesulfonyl-2-methyl-propionamide] | – | agonistic activity | – |
| CC(C)(C(=O)Nc1nc(-c2ccccn2)cs1)S(=O)(=O)CC1CCOCC1 [2-Methyl-N-(4-pyridin-2-yl-thiazol-2-yl)-2-(tetrahydro-pyran-4-ylmethanesulfonyl)-propionamide] | – | agonistic activity | – |
| CC(C)C(C(=O)Nc1cc(C(C)(C)C)on1)S(=O)(=O)C(C)C (centres unmarked) [N-(5-tert-Butyl-isoxazol-3-yl)-3-methyl-2-(propane-2-sulfonyl)-butyramide] | – | agonistic activity | – |
| CC(C)CS(=O)(=O)C(C)(C)C(=O)Nc1cc(C(C)(C)C)on1 [N-(5-tert-Butyl-isoxazol-3-yl)-2-methyl-2-(2-methyl-propane-1-sulfonyl)-propionamide] | 0.0446 | agonistic activity | – |
| CCC(C)S(=O)(=O)C(C)(C)C(=O)Nc1cc(C(C)(C)C)no1 (centres unmarked) [2-(Butane-2-sulfonyl)-N-(3-tert-butyl-isoxazol-5-yl)-2-methyl-propionamide] | 0.0033 | agonistic activity | – |
| CC(C)(C)c1cc(NC(=O)C(C)(C)S(=O)(=O)CC2CCC2)on1 [N-(3-tert-Butyl-isoxazol-5-yl)-2-cyclobutylmethanesulfonyl-2-methyl-propionamide] | 0.0037 | agonistic activity | – |
| CC(C)(C)c1cc(NC(=O)C(C)(C)S(=O)(=O)CC2CC2)no1 [N-(5-tert-Butyl-isoxazol-3-yl)-2-cyclopropylmethanesulfonyl-2-methyl-propionamide] | 0.0343 | agonistic activity | – |
| CC(C)(C)c1csc(NC(=O)C2(S(=O)(=O)C3CCCCC3)CCC2)n1 [1-Cyclohexanesulfonyl-cyclobutanecarboxylic acid (4-tert-butyl-thiazol-2-yl)-amide] | 0.0117 | agonistic activity | – |
| CC(C)CS(=O)(=O)C(C)(C)C(=O)Nc1cc(C(C)(C)C)no1 [N-(3-tert-Butyl-isoxazol-5-yl)-2-methyl-2-(2-methyl-propane-1-sulfonyl)-propionamide] | 0.0016 | agonistic activity | – |
| CCc1ccnc(NC(=O)C(C)(C)S(=O)(=O)CC2CCOCC2)c1 [N-(4-Ethyl-pyridin-2-yl)-2-methyl-2-(tetrahydro-pyran-4-ylmethanesulfonyl)-propionamide] | – | agonistic activity | – |
| CC(C)(C(=O)Nc1ccc(C(F)(F)F)cn1)S(=O)(=O)CC1CCCO1 (centres unmarked) [2-Methyl-2-(tetrahydro-furan-2-ylmethanesulfonyl)-N-(5-trifluoromethyl-pyridin-2-yl)-propionamide] | – | agonistic activity | – |
| CC(C)S(=O)(=O)C(C)(C)C(=O)Nc1ccc2ccccc2c1 [2-Methyl-N-naphthalen-2-yl-2-(propane-2-sulfonyl)-propionamide] | – | agonistic activity | – |
| CC(C)(C(=O)Nc1ccc(C(F)(F)F)cn1)S(=O)(=O)CC1CCNCC1 [2-Methyl-2-(piperidin-4-ylmethanesulfonyl)-N-(5-trifluoromethyl-pyridin-2-yl)-propionamide] | – | agonistic activity | – |
| Cn1nc(C(C)(C)C)cc1NC(=O)C(C)(C)S(=O)(=O)CC1CCOCC1 [N-(5-tert-Butyl-2-methyl-2H-pyrazol-3-yl)-2-methyl-2-(tetrahydro-pyran-4-ylmethanesulfonyl)-propionamide] | – | agonistic activity | – |
| CC(C)(C(=O)Nc1nc(-c2ccncc2)cs1)S(=O)(=O)CC1CCOCC1 [2-Methyl-N-(4-pyridin-4-yl-thiazol-2-yl)-2-(tetrahydro-pyran-4-ylmethanesulfonyl)-propionamide] | – | agonistic activity | – |

Source: patent publication US8829034B2, “Compounds which modulate the CB2 receptor” (Boehringer Ingerlheim International GmbH, priority 2006, dated 2014)
